Data reported in ChEMBL document CHEMBL1201862, “PubChem BioAssay data set” (2004).
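Protocol summary: plate cells (96-well), add compound at 5 concentrations, incubate 48 h, interpolate endpoints linearly. GI50 is the concentration that inhibits growth by half.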 Activity calls are given as the source filed them. Rule as the data show it: active = GI50 up to about 1.1 µM and inactive = higher.

Key:
Assay in all cases: NCI anticancer screen, dose series, 48 h
BT-549 = tested on: BT-549
COLO 205 = tested on: COLO 205
DU-145 = tested on: DU-145
EKVX = tested on: EKVX
HCC 2998 = tested on: HCC 2998
HCT-15 = tested on: HCT-15
HOP-62 = tested on: HOP-62
LOX IMVI = tested on: LOX IMVI
MDA-MB-435 = tested on: MDA-MB-435
NCI-H522 = tested on: NCI-H522
NCI/ADR-RES = tested on: NCI/ADR-RES
OVCAR-5 = tested on: OVCAR-5
OVCAR-8 = tested on: OVCAR-8
PC-3 = tested on: PC-3
RXF 393 = tested on: RXF 393
SF-268 = tested on: SF-268
SF-295 = tested on: SF-295
SK-MEL-28 = tested on: SK-MEL-28
SK-MEL-5 = tested on: SK-MEL-5
SW-620 = tested on: SW-620

SMILES	GI50 (BT-549)	GI50 (COLO 205)	GI50 (DU-145)	GI50 (EKVX)	GI50 (HCC 2998)	GI50 (HCT-15)	GI50 (HOP-62)	GI50 (LOX IMVI)	GI50 (MDA-MB-435)	GI50 (NCI-H522)	GI50 (NCI/ADR-RES)	GI50 (OVCAR-5)	GI50 (OVCAR-8)	GI50 (PC-3)	GI50 (RXF 393)	GI50 (SF-268)	GI50 (SF-295)	GI50 (SK-MEL-28)	GI50 (SK-MEL-5)	GI50 (SW-620)
CCOC(=O)c1[nH]cc(C)c1-c1ccc2c(-c3ccccc3)nc3ccccc3n12	5.13 µM (inactive)	2.86 µM (inactive)	3.8 µM (inactive)	3.82 µM (inactive)	2.26 µM (inactive)	3.55 µM	5.42 µM (inactive)	3.44 µM (inactive)	2.23 µM (inactive)	1.53 µM (inactive)	2.51 µM (inactive)	15.8 µM (inactive)	4.25 µM (inactive)	3.01 µM (inactive)	2.03 µM (inactive)	3.94 µM (inactive)	3.52 µM (inactive)	3.89 µM (inactive)	2.37 µM (inactive)	3.13 µM (inactive)
CC(=O)OCC1OC(OCCCOP(=S)(OCCC#N)OCC2OC(n3ccc(N)nc3=O)C(OC(=O)c3ccccc3)C2OC(=O)c2ccccc2)C(OC(C)=O)C(OC(C)=O)C1OC(C)=O (stereo not given)	> 100 µM (inactive)	> 100 µM (inactive)	> 100 µM (inactive)	> 100 µM (inactive)	> 100 µM (inactive)	> 100 µM	43.5 µM (inactive)	> 100 µM (inactive)	> 100 µM (inactive)	> 100 µM (inactive)	> 100 µM (inactive)	> 100 µM (inactive)	> 100 µM (inactive)	> 100 µM (inactive)	> 100 µM (inactive)	> 100 µM (inactive)	> 100 µM (inactive)	> 100 µM (inactive)	> 100 µM (inactive)	> 100 µM (inactive)
CC(C)(C)C(=O)OCOP(=O)(OCOC(=O)C(C)(C)C)OCC1OC(n2ccc(=O)[nH]c2=O)C(N=[N+]=[N-])C1O (stereo not given)	3.91 µM (inactive)	3.14 µM (inactive)	4.94 µM (inactive)	7.59 µM (inactive)	2.75 µM (inactive)	3.07 µM	2.37 µM (inactive)	1.59 µM (inactive)	3.71 µM (inactive)	4.92 µM (inactive)	7.74 µM (inactive)	5.28 µM (inactive)	3.06 µM (inactive)	3.81 µM (inactive)	2.3 µM (inactive)	0.757 µM (active)	12.7 µM (inactive)	11.6 µM (inactive)	4.9 µM (inactive)	5.79 µM (inactive)
N#C/C(=C\c1ccccc1)c1nc(-c2cc3ccccc3oc2=O)cs1	27.3 µM (inactive)	> 100 µM (inactive)	> 100 µM (inactive)	71.3 µM (inactive)	> 100 µM (inactive)	> 100 µM	30.9 µM (inactive)	> 100 µM (inactive)	> 100 µM (inactive)	> 100 µM (inactive)	> 100 µM (inactive)	> 100 µM (inactive)	> 100 µM (inactive)	> 100 µM (inactive)	> 100 µM (inactive)	60 µM (inactive)	> 100 µM (inactive)	> 100 µM (inactive)	> 100 µM (inactive)	> 100 µM (inactive)
COc1cc(/C=C2\CCC/C(=C\c3ccc(O)c(OC)c3)C2=O)ccc1O [CYCLOVALONE]	3.59 µM (inactive)	14.2 µM (inactive)	3.47 µM (inactive)	6.84 µM (inactive)	2.77 µM (inactive)	2.34 µM	2.84 µM (inactive)	1.67 µM (inactive)	3.13 µM (inactive)	1.57 µM (inactive)	2.91 µM (inactive)	9.66 µM (inactive)	1.72 µM (inactive)	3.66 µM (inactive)	2.24 µM (inactive)	2.39 µM (inactive)	2.92 µM (inactive)	3.41 µM (inactive)	2.51 µM (inactive)	2.7 µM (inactive)
CO/[N+]([O-])=C\C(=O)N/C=C/C(=O)O	> 100 µM (inactive)	> 100 µM (inactive)	> 100 µM (inactive)	> 100 µM (inactive)	> 100 µM (inactive)	> 100 µM	> 100 µM (inactive)	> 100 µM (inactive)	> 100 µM (inactive)	> 100 µM (inactive)	> 100 µM (inactive)	> 100 µM (inactive)	> 100 µM (inactive)	> 100 µM (inactive)	> 100 µM (inactive)	> 100 µM (inactive)	> 100 µM (inactive)	> 100 µM (inactive)	> 100 µM (inactive)	> 100 µM (inactive)
NC(=O)NC(=O)c1cccc(NC(=O)CF)c1	> 100 µM (inactive)	> 100 µM (inactive)	> 100 µM (inactive)	> 100 µM (inactive)	> 100 µM (inactive)	> 100 µM	> 100 µM (inactive)	> 100 µM (inactive)	> 100 µM (inactive)	> 100 µM (inactive)	> 100 µM (inactive)	> 100 µM (inactive)	> 100 µM (inactive)	> 100 µM (inactive)	> 100 µM (inactive)	> 100 µM (inactive)	> 100 µM (inactive)	> 100 µM (inactive)	> 100 µM (inactive)	> 100 µM (inactive)
